Measurements published in US7629318B2, “Immunosuppressant compounds, methods and uses related thereto” (priority 2002, dated 2009).
Square brackets hold non-standard residues; d marks the D form. Peptide text beside a SMILES is read from it. * marks the point of attachment. Gly(1-amidinopiperidin-4-yl) = N=C(N)N1CCC([C@H](N)C(=O)O)CC1; Tetrahydroisoquinolin(2-yl) = c1ccc2c(c1)CCN(*)C2; N(Me)CH2CH2Ph = CN(CCc1ccccc1)*; Tic = O=C(O)[C@@H]1Cc2ccccc2CN1; Cha = N[C@@H](CC1CCCCC1)C(=O)O; X4 = OCCOCCN(CCc1ccccc1)*; Nle = CCCC[C@H](N)C(=O)O; X2 = OCCOCCN(Cc1ccccc1)*; X5 = OCCN(Cc1ccccc1)*

Columns and labels:
[1] = Stability of compounds in human blood plasma; assay type: in vitro ADME
Procedure: (§1) The stability of the peptidomimetic compounds was determined in rat (Charles River Laboratories, Sulzfeld), mouse (Charles River Laboratories, Sulzfeld) and human (Bayerisches Rotes Kreuz, München) blood plasma (E. R. Garrett and M. R. Gardner, J Pharmaceutical Sciences 71 (1982) 14-25).
(§2) Compound stock solutions were diluted into blood plasma to give a final compound concentration of 5 μM and the mixtures were incubated at 37° C. At 0, 6 and 24 hours 1 ml samples were drawn and the plasma proteins were precipitated by the addition of 3 ml acetonitrile p.a. and whirlmixing. The precipitate was pelleted by centrifugation at 2000 g for 5 minutes. The supernatant was evaporated off to dryness and the residue was reconstituted in 400 μl 50% acetonitrile, 0.1% TFA in water.
(§3) PBS controls were prepared for unstable compounds accordingly.

[2] = system: T-cell proliferation, DR14-LN; settings: for Immunsupressive assays DR14-LN (Max) % Inhibition: maximal inhibition; for IC50: read-out: Immunsupressive assays DR14-LN (IC50)
[3] = target: DR4Dw4 (DRA1*0101 DRB1*0401) (Homo sapiens, UniProt P01903+P01911, A100K/A169T/F76Y/I96L/K127E/L162R/M171V/N62H/P40V/Q125Y/R42H/S133A/S149N/S66Y/V115G/V209L/W38E); test: Competitive binding to MHC-II protein DR4Dw4
Procedure: (§4) Interaction mixtures lacking the peptidomimetic compound and both peptide mimetic compound and MHC-II were used as positive and negative controls, respectively. All interaction mixtures were set up in duplicates and were incubated for 16 hours at room temperature.
(§5) After washing with PBS, 60 μl of the MHC-II-compound interaction mixtures were transferred from the interaction plate to the appropriate wells of the capture plate and incubated for 2 h at 4° C. The wells were washed six times with 200 μl/well of cooled (4 to 8° C.) 1×DELFIA wash (Wallac-ADL-GmbH, Freiburg), incubated with 100 μl of cooled Europium-streptavidin conjugate (Wallac-ADL-GmbH, Freiburg; diluted 1/1000 with DELFIA assay buffer) for 30 minutes at 4° C., again washed six times with cooled 1×DELFIA wash and, finally, incubated with 200 μl cooled DELFIA enhancement solution (Wallac-ADL-GmbH, Freiburg) for one hour at room temperature before reading the time-resolved europium fluorescence at λex Eu^3+: 340 nm and λem Eu^3+: 613 (615) nm (Wallac Victor^2 1420 Multilabel Counter, Wallac-ADL-GmbH, Freiburg).

[4] = system: T-cell proliferation, lymph node cells of chimeric 0401-IE transgenic mice; settings: DR4-LN; for Immunsupressive assays DR4-LN (Max) % Inhibition: maximal inhibition; for IC50: read-out: Immunsupressive assays DR4-LN (IC50)
Procedure: The compounds were tested as follows to inhibit the proliferative T cell response of antigen-primed lymph node cells from mice carrying a chimeric mouse-human class II transgene with an RA-associated peptide binding site, and lack murine class II molecules (Muller et al., 1990; Woods et al., 1994; Current Protocols in Immunology, Vol. 2, 7.21; Ito et al., 1996). Here, the immunization takes place in vivo, but the inhibition and readout are ex vivo. […] These mice lack murine MHC class II, and thus, all Th responses are channelled through a single human RA-associated MHC class II molecule (Ito et al. 1996). These transgenic mice represent a model for testing human class II antagonists.
1.5×10^5 cells are incubated in 0.2 ml wells of 96-well tissue culture plates in the presence of ovalbumin (30 μg per well—half-maximal stimulatory concentration) and a dilution series of the compound under test (from around 0.1 to 200 uM) in serum free HL-1 medium containing 2 mM L-glutamine and 0.1 g/l Kanamycin for three days. Antigen specific proliferation is measured by 3H-methyl-thymidine (1 μCi/well) incorporation during the last 16 h of culture (Falcioni et al., 1999). Cells are harvested, and 3H incorporation measured using a scintillation counter (TopCount, Wallac Finland).

[5] = target: Cathepsin B1 (EC 3.4.22.1 from bovine spleen) (Bos taurus, UniProt P07688); settings: Cathepsin B, 4 h
[6] = target: DR4Dw14 (DRA1*0101 DRB1*0404) (Homo sapiens, UniProt P01903+P01911, A100R/A169T/F76Y/I96L/K127E/L162R/M171V/N62H/P40V/Q125Y/R42H/S133A/S149N/S66Y/V209L/W38E); test: Competitive binding to MHC-II protein DR4Dw14; settings: 0404; read-out: Protein binding IC50 (nM) 0404
Procedure: as §4, §5

[7] = Stability of compounds in rat blood plasma; assay type: in vitro ADME
Procedure: as §1, §2, §3

[8] = target: DR1 (DRA1*0101 DRB1*0101) (Homo sapiens, UniProt P01903+P01911, A100R/D57E/F55L/F60I/F76Y/I96L/L162R/M171V/P40L/Q125E/R42F/V115G/Y59C); test: Competitive binding to MHC-II protein DR1; settings: Protein binding IC50 (nM) 0101, 0101
Procedure: as §4, §5

[9] = target: Cathepsin D (EC 3.4.23.5 from bovine spleen) (Bos taurus, UniProt P80209)
Procedure: The stability of the peptidomimetic compounds towards lysosomal degradation was examined by incubation with Cathepsin B1 (EC 3.4.22.1 from bovine spleen; Sigma-Aldrich, Taufkirchen; dissolved at 10000 U/l in ddH2O) and D (EC 3.4.23.5 from bovine spleen; Sigma-Aldrich, Taufkirchen; dissolved at 10000 U/l in ddH2O) for four hours at 37° C. using a compound concentration of 50 μM and an enzyme/substrate ratio of 0.4 U/μmol. The samples contained 25 ppm 4-isopropyl benzyl alcohol (IPBA; Sigma-Aldrich, Taufkirchen) as internal standard.
Assay buffer was prepared by adding 35 μl of a 1% IPBA in DMSO solution and 28 μl of a 10000 U/l Cathepsin B1 or Cathepsin D stock solution to 14 ml of 100 mM sodium acetate, 1 mM EDTA, 1 mM DTT, pH 5.00 or 100 mM sodium acetate, pH 4.50, respectively. 8.8 μl of a 5 mM (or 4.4 μl of a 10 mM) compound stock solution (in 10% DMSO/water) were placed into a 1.5 ml Eppendorf tube. The reaction was started by adding 875 μl fully supplemented assay buffer to each tube, whirlmixing and incubation at 37° C. At 0 and 4 hours 400 μl samples were taken and the enzyme was inactivated by addition of 40 μl […] TFA aq. The samples were kept frozen at −20° C. until analysis by RP-HPLC (200 μl injection volume; Nucleosil 100-5 C18, 12.5×4.6 cm; Gradient: 20-50% acetonitrile in 30 min).
Compounds co-eluting with the internal standard during RP-HPLC analysis were tested without the standard as Example 16.

[10] = Stability of compounds in mouse blood plasma; assay type: in vitro ADME
Procedure: as §1, §2, §3

## CCCC[C@H](NC(=O)[C@@H]1Cc2ccccc2CN1C(=O)[C@@H](NC(=O)[C@H](CC1CCCCC1)NC(C)=O)C1CCN(C(=N)N)CC1)C(=O)N1CCc2ccccc2C1 [Compound P77, Ac-Cha-Gpg-Tic-Nle-tetrahydroisoquinoline] (Ac-[Cha][Gly(1-amidinopiperidin-4-yl)][Tic][Nle]-{Tetrahydroisoquinolin(2-yl)})
[1]
  Stability (Arbitrary units) Human 6 h: 111 Arbitrary units
  Stability (Arbitrary units) Human 24 h: 114 Arbitrary units
[2]
  Immunsupressive assays DR14-LN (Max) % Inhibition: 99%
  IC50: 14 µM
[3]
  IC50: 8.7 µM
[4]
  Immunsupressive assays DR4-LN (Max) % Inhibition: 100%
  IC50: 10 µM
[5]
  Stability (Arbitrary units) Cath B 4 h: 107 Arbitrary units
[6]
  IC50: 3600 nM
[7]
  Stability (Arbitrary units) Rat 6 h: 129 Arbitrary units
  Stability (Arbitrary units) Rat 24 h: 57 Arbitrary units
[8]
  IC50: 1900 nM
[9]
  Stability (Arbitrary units) Cath D 4 h: 95 Arbitrary units
[10]
  Stability (Arbitrary units) Mouse 6 h: 141 Arbitrary units
  Stability (Arbitrary units) Mouse 24 h: 181 Arbitrary units

## CCCC[C@H](NC(=O)[C@@H]1Cc2ccccc2CN1C(=O)[C@@H](NC(=O)[C@H](CC1CCCCC1)NC(C)=O)C1CCN(C(=N)N)CC1)C(=O)N(CCO)Cc1ccccc1 [Compound P78, Ac-Cha-Gpg-Tic-Nle-N(Bn)CH2CH2OH] (Ac-[Cha][Gly(1-amidinopiperidin-4-yl)][Tic][Nle]-X5)
[1]
  Stability (Arbitrary units) Human 6 h: 73 Arbitrary units
  Stability (Arbitrary units) Human 24 h: 130 Arbitrary units
[2]
  Immunsupressive assays DR14-LN (Max) % Inhibition: 100%
  IC50: 36 µM
[3]
  IC50: 2.6 µM
[4]
  Immunsupressive assays DR4-LN (Max) % Inhibition: 97%
  IC50: 36 µM
[5]
  Stability (Arbitrary units) Cath B 4 h: 100 Arbitrary units
[6]
  IC50: 1200 nM
[7]
  Stability (Arbitrary units) Rat 6 h: 184 Arbitrary units
  Stability (Arbitrary units) Rat 24 h: 107 Arbitrary units
[8]
  IC50: 430 nM
[9]
  Stability (Arbitrary units) Cath D 4 h: 108 Arbitrary units
[10]
  Stability (Arbitrary units) Mouse 6 h: 90 Arbitrary units
  Stability (Arbitrary units) Mouse 24 h: 113 Arbitrary units

## CCCC[C@H](NC(=O)[C@@H]1Cc2ccccc2CN1C(=O)[C@H](CCCNC(=N)N)NC(=O)[C@H](CC1CCCCC1)NC(C)=O)C(=O)N(C)CCc1ccccc1 [Compound P83, Ac-Cha-Arg-Tic-Nle-N(Me)CH2CH2Ph] (Ac-[Cha]R[Tic][Nle]-{N(Me)CH2CH2Ph})
[2]
  Immunsupressive assays DR14-LN (Max) % Inhibition: 100%
  IC50: 13 µM
[3]
  IC50: 24 µM
[5]
  Stability (Arbitrary units) Cath B 4 h: 100 Arbitrary units
[6]
  IC50: 11000 nM
[7]
  Stability (Arbitrary units) Rat 6 h: 69 Arbitrary units
  Stability (Arbitrary units) Rat 24 h: 85 Arbitrary units
[8]
  IC50: 1300 nM
[9]
  Stability (Arbitrary units) Cath D 4 h: 98 Arbitrary units
[10]
  Stability (Arbitrary units) Mouse 6 h: 93 Arbitrary units
  Stability (Arbitrary units) Mouse 24 h: 58 Arbitrary units

## CCCC[C@H](NC(=O)[C@@H]1Cc2ccccc2CN1C(=O)[C@H](CCCNC(=N)N)NC(=O)[C@H](CC1CCCCC1)NC(C)=O)C(=O)N(CCOCCO)CCc1ccccc1 [Compound P88] (Ac-[Cha]R[Tic][Nle]-X4)
[1]
  Stability (Arbitrary units) Human 6 h: 133 Arbitrary units
  Stability (Arbitrary units) Human 24 h: 123 Arbitrary units
[2]
  IC50: 37 µM
[3]
  IC50: 10 µM
[4]
  IC50: 105 µM
[5]
  Stability (Arbitrary units) Cath B 4 h: 94 Arbitrary units
[6]
  IC50: 5700 nM
[7]
  Stability (Arbitrary units) Rat 6 h: 77 Arbitrary units
  Stability (Arbitrary units) Rat 24 h: 55 Arbitrary units
[8]
  IC50: 2000 nM
[9]
  Stability (Arbitrary units) Cath D 4 h: 101 Arbitrary units
[10]
  Stability (Arbitrary units) Mouse 6 h: 125 Arbitrary units
  Stability (Arbitrary units) Mouse 24 h: 128 Arbitrary units

## CCCC[C@H](NC(=O)[C@@H]1Cc2ccccc2CN1C(=O)[C@H](CCCNC(=N)N)NC(=O)[C@H](CC1CCCCC1)NC(C)=O)C(=O)N(CCOCCO)Cc1ccccc1 [Compound P98, Ac-Cha-Arg-Tic-Nle-N(Bn)CH2CH2OCH2CH2OH] (Ac-[Cha]R[Tic][Nle]-X2)
[1]
  Stability (Arbitrary units) Human 6 h: 116 Arbitrary units
  Stability (Arbitrary units) Human 24 h: 121 Arbitrary units
[2]
  IC50: > 200 µM
[3]
  IC50: 4.7 µM
[4]
  Immunsupressive assays DR4-LN (Max) % Inhibition: 67%
  IC50: 69 µM
[5]
  Stability (Arbitrary units) Cath B 4 h: 104 Arbitrary units
[6]
  IC50: 1300 nM
[7]
  Stability (Arbitrary units) Rat 6 h: 71 Arbitrary units
  Stability (Arbitrary units) Rat 24 h: 60 Arbitrary units
[8]
  IC50: 640 nM
[9]
  Stability (Arbitrary units) Cath D 4 h: 104 Arbitrary units
[10]
  Stability (Arbitrary units) Mouse 6 h: 87 Arbitrary units
  Stability (Arbitrary units) Mouse 24 h: 54 Arbitrary units
